In ChEMBL document CHEMBL1132001, “Generation of an Ugi library of phosphate mimic-containing compounds and identification of novel dual specific phosphatase inhibitors” (Bioorg Med Chem Lett, 1999) one finds Activity data, which are given here for eleven molecules.

The species named for one assay is Homo sapiens. The assay is described as follows: Inhibition of dual specificity Cell division cycle 25.
Assay [1] is described as follows: Compound was evaluated for its activity against PTP1B (a tyrosine phosphatase).
Assay [2] has as its target Dual specificity protein phosphatase 3 (Homo sapiens) (UniProt P51452). The assay is described as follows: Compound was evaluated for its activity against VHR.

Chain of Dual specificity protein phosphatase 3 (Homo sapiens) (P51452 whole entry, looked up): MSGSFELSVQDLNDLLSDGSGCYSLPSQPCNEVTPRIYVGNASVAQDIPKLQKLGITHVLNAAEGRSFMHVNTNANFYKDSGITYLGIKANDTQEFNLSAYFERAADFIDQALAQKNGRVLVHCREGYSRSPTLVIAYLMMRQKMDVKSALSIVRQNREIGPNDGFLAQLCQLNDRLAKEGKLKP

With `O=C(O)C(Oc1ccc(C(=O)N(Cc2ccc3c(c2)OCO3)C(C(=O)NC2CCCCC2)c2ccc(OCP(=O)(O)O)cc2)cc1)C(=O)O` (centres undefined), the Activity in the assay filed under Homo sapiens stood at 0.7 µM; in assay [1] it was 82 µM; in assay [2], 5 µM.
As to `O=C(O)C(Oc1ccc(C(C(=O)NC2CCCCC2)N(Cc2ccc3c(c2)OCO3)C(=O)c2ccc(CP(=O)(O)O)cc2)cc1)C(=O)O` (centres undefined), the Activity in the assay listed under Homo sapiens was determined as 3 µM; in assay [1], 107 µM; in assay [2], 11 µM.
For `CC(C)=CCCC(C)C(C(=O)NC1CCCCC1)N(Cc1ccc2c(c1)OCO2)C(=O)c1ccc(CP(=O)(O)O)cc1` (centres undefined), the Activity is 23 µM in the assay listed under Homo sapiens, 73 µM in assay [1] and 19 µM in assay [2].
On the same counts, the results for `CC(C)=CCCC(C)C(C(=O)NC1CCCCC1)N(CCc1c[nH]c2ccccc12)C(=O)c1ccc(CP(=O)(O)O)cc1` (centres undefined) are 23 µM, 61 µM and 17 µM.
In the assay listed under Homo sapiens, `CC(C)=CCCC(C)C(C(=O)NC1CCCCC1)N(CCc1c[nH]c2ccccc12)C(=O)c1ccc(C(F)(F)P(=O)(O)O)cc1` (centres undefined) returned an Activity of 27 µM.
As to `O=C(NC1CCCCC1)C(c1ccnc2ccccc12)N(CCc1c[nH]c2ccccc12)C(=O)c1ccc(CP(=O)(O)O)cc1` (centres undefined), the Activity was 16 µM in the assay listed under Homo sapiens, greater than 160 µM in assay [1] and 87 µM in assay [2].
On to `Cc1ccc(S(=O)(=O)CNC(=O)C(c2ccc(OCP(=O)(O)O)cc2)N(CCc2c[nH]c3ccccc23)C(=O)c2cc(Br)cc(Br)c2O)cc1` (centres undefined), for which the results for the Activity (in the assay filed under Homo sapiens; in assay [1]; in assay [2]) were 10 µM, 95 µM and greater than 120 µM, respectively.
In the case of `O=C(NC(Cc1ccc(O)cc1)C(=O)N(CCc1c[nH]c2ccccc12)C(C(=O)NCCN1CCOCC1)c1ccc(OCP(=O)(O)O)cc1)OCC1c2ccccc2-c2ccccc21` (centres undefined), the Activity was 8 µM in the assay listed under Homo sapiens, 16 µM in assay [1] and 6.1 µM in assay [2].
With `O=C(O)CNC(=O)C(c1nccs1)N(Cc1ccc2c(c1)OCO2)C(=O)c1ccc(CP(=O)(O)O)cc1` (centres undefined), the Activity was 35 µM in the assay listed under Homo sapiens, greater than 96 µM in assay [1] and greater than 9 µM in assay [2].
For `CC(C)/C=C\CC(C)C(C(=O)NCC(=O)O)N(CCc1c[nH]c2ccccc12)C(=O)c1cc(Br)cc(Br)c1O` (centres undefined), the Activity in the assay filed under Homo sapiens was 15 µM.
Regarding `O=C(O)C(Oc1ccc(C(=O)N(Cc2ccc3c(c2)OCO3)C(C(=O)NC2CCCCC2)c2ccc(OC(C(=O)O)C(=O)O)cc2)cc1)C(=O)O` (centres undefined), the results for the Activity (in the assay filed under Homo sapiens; in assay [1]; in assay [2]) were 3 µM, 89 µM and 9 µM, respectively.
